Data taken from ChEMBL document CHEMBL5726081, “Therapeutic inhibitory compounds” (2017).

Target: Plasma kallikrein (Homo sapiens, UniProt P03952)
Experiment: In Vitro Enzyme Inhibition Assay: The ability of the compounds disclosed herein to inhibit human plasma kallikrein activity was quantified according to the procedures below.A 10 mM solution of the test compound was made in DMSO. […] A control tube containing only DMSO is included. […] 50 μL was removed from this mixture and placed into duplicate wells on a Microfluor 1Black U-bottom microtiter plate (Thermo Scientific). This plate was incubated for 5 minutes at 37° C. To each well, 50 μL of pre-warmed 2×PFR-AMC was added to start the enzymatic reaction. Cleavage of PFR-AMC was monitored in a Biotek Synergy H4 reader set at 37° C. Readings are taken every 43 seconds for 1 hour.

Chain of Plasma kallikrein (P03952 20-390 limits assumed): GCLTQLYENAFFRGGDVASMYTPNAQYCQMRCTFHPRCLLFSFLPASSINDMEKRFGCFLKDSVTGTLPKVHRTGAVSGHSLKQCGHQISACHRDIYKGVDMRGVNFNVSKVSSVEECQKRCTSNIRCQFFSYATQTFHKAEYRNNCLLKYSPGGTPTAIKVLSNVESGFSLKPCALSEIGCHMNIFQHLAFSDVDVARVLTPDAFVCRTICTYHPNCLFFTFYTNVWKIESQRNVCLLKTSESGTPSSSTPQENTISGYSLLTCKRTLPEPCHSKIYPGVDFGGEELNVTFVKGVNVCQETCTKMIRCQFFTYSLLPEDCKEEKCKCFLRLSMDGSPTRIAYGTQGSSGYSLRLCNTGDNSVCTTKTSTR
Chain of Plasma kallikrein (P03952 391-638 limits assumed): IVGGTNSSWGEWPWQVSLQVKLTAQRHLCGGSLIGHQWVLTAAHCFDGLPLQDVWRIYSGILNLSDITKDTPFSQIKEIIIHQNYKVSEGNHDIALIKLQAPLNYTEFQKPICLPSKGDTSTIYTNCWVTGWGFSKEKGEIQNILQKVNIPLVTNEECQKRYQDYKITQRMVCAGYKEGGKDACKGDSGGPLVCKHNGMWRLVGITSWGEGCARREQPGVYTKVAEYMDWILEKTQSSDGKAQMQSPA

`N#Cc1ccc2cc(Cc3cc(C(=O)NCc4cc5c(Cl)c[nH]c5cc4F)ccn3)ccc2n1` gave an IC50 of less than 100 nM.

`Cc1nc(N)ccc1CNC(=O)c1ccnc(Cc2cc(C#N)c3ncc(Cl)cc3c2)c1` showed an IC50 of less than 100 nM.
